From ChEMBL document CHEMBL4725344, “Development of Highly Potent Carbazole Amphiphiles as Membrane-Targeting Antimicrobials for Treating Gram-Positive Bacterial Infections” (J Med Chem, 2020)
Converted amounts (≈) assume the structure as drawn.

Legend:
Staphylococcus aureus [1] = assay: Antibacterial activity against Staphylococcus aureus ATCC 29213 measured after 24 hrs by microplate reader analysis; format: functional
Staphylococcus aureus [2] = assay: Antibacterial activity against methicillin-resistant Staphylococcus aureus N315 measured after 24 hrs by microplate reader analysis; format: functional
Staphylococcus aureus [3] = assay: Antibacterial activity against methicillin-resistant Staphylococcus aureus NCTC 10442 measured after 24 hrs by microplate reader analysis; format: functional
[4] = Hemolytic activity in rabbit erythrocytes measured after 1 hr by microplate reader analysis; format: ADME, cell-based, Oryctolagus cuniculus, Erythrocyte
[5] = Solubility of the compound in water; format: physicochemical; details: buffer

SMILES	MIC (Staphylococcus aureus [1]) [µg/mL]	MIC (Staphylococcus aureus [2]) [µg/mL]	MIC (Staphylococcus aureus [3]) [µg/mL]	HC50 at 1 h [4] [µg/mL]	solubility [5]
CCCn1c2ccccc2c2c(OCC3CO3)cccc21 (stereo not drawn)	> 50	> 50	> 50	> 200	–
CCCCCn1c2ccccc2c2c(OCC3CO3)cccc21 (stereo not drawn)	> 50	> 50	> 50	> 200	–
CC[N+](C)(CC)CC(O)COc1cccc2c1c1ccccc1n2CC=C(C)C.[I-] (stereo not drawn)	6.25	6.25	6.25	142	–
CC(C)=CCn1c2ccccc2c2c(OCC(O)CN(C)C)cccc21 (stereo not drawn)	6.25 (≈ 17.7 µM)	3.12 (≈ 8.87 µM)	3.12 (≈ 8.87 µM)	119	–
CC(C)=CCn1c2ccccc2c2c(OCC(O)CNC(C)C)cccc21 (stereo not drawn)	6.25 (≈ 17.1 µM)	3.12 (≈ 8.53 µM)	3.12 (≈ 8.53 µM)	160	–
NCC(O)COc1cccc2[nH]c3ccccc3c12 (stereo not drawn)	> 50	> 50	> 50	> 200	–
CN(C)CC(O)COc1cccc2[nH]c3ccccc3c12 (stereo not drawn)	> 50	> 50	> 50	> 200	–
CCCN(CCC)CC(O)COc1cccc2c1c1ccccc1n2CC=C(C)C (stereo not drawn)	> 50	> 50	> 50	> 200	–
N=C(N)NCC(O)COc1cccc2[nH]c3ccccc3c12 (stereo not drawn)	50 (≈ 168 µM)	50 (≈ 168 µM)	50 (≈ 168 µM)	> 200	–
CN(C)CC(O)COc1cccc2c1c1ccccc1n2C (stereo not drawn)	> 50	> 50	> 50	> 200	–
CCCCCCCn1c2ccccc2c2c(OCC3CO3)cccc21 (stereo not drawn)	> 50	> 50	> 50	> 200	–
Cn1c2ccccc2c2c(OCC3CO3)cccc21 (stereo not drawn)	> 50	> 50	> 50	> 200	–
CCCCN(CCCC)CC(O)COc1cccc2c1c1ccccc1n2CC=C(C)C (stereo not drawn)	> 50	> 50	> 50	> 200	–
CCCC[N+](C)(CCCC)CC(O)COc1cccc2c1c1ccccc1n2CC=C(C)C.[I-] (stereo not drawn)	1.56	1.56	1.56	61.3	–
CCCCCn1c2ccccc2c2c(OCC(O)CN(C)C)cccc21 (stereo not drawn)	12.5 (≈ 35.3 µM)	6.25 (≈ 17.6 µM)	6.25 (≈ 17.6 µM)	152	–
CC(C)=CCn1c2ccccc2c2c(OCC3CO3)cccc21 (stereo not drawn)	> 50	> 50	> 50	> 200	–
c1ccc2c(c1)[nH]c1cccc(OCC3CO3)c12 (stereo not drawn)	> 50	> 50	> 50	> 200	–

SMILES	MIC (Staphylococcus aureus [1]) [µg/mL]	MIC (Staphylococcus aureus [2]) [µg/mL]	MIC (Staphylococcus aureus [3]) [µg/mL]	HC50 at 1 h [4] [µg/mL]	solubility [5]
CC(C)NCC(O)COc1cccc2[nH]c3ccccc3c12 (stereo not drawn) [CARAZOLOL]	> 50	> 50	> 50	> 200	–
CCCCCCCCNCC(O)COc1cccc2c1c1ccccc1n2CC=C(C)C (stereo not drawn)	6.25 (≈ 14.3 µM)	1.56 (≈ 3.57 µM)	1.56 (≈ 3.57 µM)	> 200	Insoluble
CC(C)=CCn1c2ccccc2c2c(OCC(O)CN3CCCCC3)cccc21 (stereo not drawn)	6.25 (≈ 15.9 µM)	3.12 (≈ 7.96 µM)	3.12 (≈ 7.96 µM)	81.8	–
CC(C)=CCn1c2ccccc2c2c(OCC(O)CN)cccc21 (stereo not drawn)	12.5 (≈ 38.5 µM)	6.25 (≈ 19.3 µM)	6.25 (≈ 19.3 µM)	> 200	–
CCCNCC(O)COc1cccc2c1c1ccccc1n2CC=C(C)C (stereo not drawn)	6.25 (≈ 17.1 µM)	3.12 (≈ 8.53 µM)	6.25 (≈ 17.1 µM)	> 200	–
CC(C)=CCn1c2ccccc2c2c(OCC(O)CN(CCO)CCO)cccc21 (stereo not drawn)	25 (≈ 60.6 µM)	25 (≈ 60.6 µM)	25 (≈ 60.6 µM)	126	–
CC(C)=CCn1c2ccccc2c2c(OCC(O)CN3CCSCC3)cccc21 (stereo not drawn)	> 50	> 50	> 50	> 200	–
CCCCCCCn1c2ccccc2c2c(OCC(O)CN(C)C)cccc21 (stereo not drawn)	6.25 (≈ 16.3 µM)	12.5 (≈ 32.7 µM)	12.5 (≈ 32.7 µM)	182	–
CCNCC(O)COc1cccc2c1c1ccccc1n2CC=C(C)C (stereo not drawn)	6.25 (≈ 17.7 µM)	3.12 (≈ 8.87 µM)	6.25 (≈ 17.7 µM)	156	–
CCCCCCCCCn1c2ccccc2c2c(OCC3CO3)cccc21 (stereo not drawn)	> 50	> 50	> 50	> 200	–
CCCCCNCC(O)COc1cccc2c1c1ccccc1n2CC=C(C)C (stereo not drawn)	12.5 (≈ 31.7 µM)	6.25 (≈ 15.8 µM)	12.5 (≈ 31.7 µM)	> 200	–
CC(C)=CCn1c2ccccc2c2c(OCC(O)CN3CCN(C)CC3)cccc21 (stereo not drawn)	12.5 (≈ 30.7 µM)	12.5 (≈ 30.7 µM)	12.5 (≈ 30.7 µM)	70	–
CCCCCCCCCn1c2ccccc2c2c(OCC(O)CN(C)C)cccc21 (stereo not drawn)	12.5 (≈ 30.4 µM)	6.25 (≈ 15.2 µM)	6.25 (≈ 15.2 µM)	128	–
CCCCCCCCCCNCC(O)COc1cccc2c1c1ccccc1n2CC=C(C)C (stereo not drawn)	6.25 (≈ 13.4 µM)	1.56 (≈ 3.36 µM)	3.12 (≈ 6.72 µM)	> 200	Insoluble
CCN(CC)CC(O)COc1cccc2c1c1ccccc1n2CC=C(C)C (stereo not drawn)	12.5 (≈ 32.8 µM)	12.5 (≈ 32.8 µM)	12.5 (≈ 32.8 µM)	88.7	–
CC(C)=CCn1c2ccccc2c2c(OCC(O)CN3CCCC3)cccc21 (stereo not drawn)	12.5 (≈ 33 µM)	6.25 (≈ 16.5 µM)	6.25 (≈ 16.5 µM)	76.2	–
CCCn1c2ccccc2c2c(OCC(O)CN(C)C)cccc21 (stereo not drawn)	50 (≈ 153 µM)	50 (≈ 153 µM)	50 (≈ 153 µM)	> 200	–
